Columns and labels:
Format in all cases: in vivo
[1] = test system: silverleaf whitefly (Bemisia argentifolii Bellows and Perring); experiment: Test A: silverleaf whitefly control on cotton or soybean plants, spray, insect mortality after 13 days; settings: Bemisia argentifolii, read-out: % Mortality (obs)
Description: (§1) The pest control protection afforded by the mixtures or compositions is not limited, however, to these species. The analysis of enhanced activity between the mixtures or compositions was determined using Colby's equation. The average % mortality data for the test compounds alone were inserted into the Colby's equation. If the observed (obs) average % mortality was higher than “p”, the expected (exp) % mortality, the mixture or composition had enhanced effects. If the observed average % mortality was equal to or lower than the expected mortality, the mixture or composition either had no enhanced effect. For bioassays where insect feeding damage was evaluated, enhanced activity is identified when the observed plant damage is less than the expected plant damage rating; ratings ranged between 0 (no damage) and 10 (dead plant) and each value was converted to a % plant protection. 100−(Obs Plant Damage*10)
For evaluating control of silverleaf whitefly (Bemisia argentifolii Bellows and Perring) through contact and/or systemic means, each test unit consisted of a small open container with a 12- to 14-day-old cotton plant or 5-7 day old soybean plant inside. This was pre-infested by placing test units into cages containing adult whiteflies so that oviposition on the cotton leaves could occur. The adults were removed from the plants with an air-blast nozzle, and the test units were capped. The test units were then stored 2 to 3 days before spraying.
Test compounds were formulated using a solution containing 10% acetone, 90% water and 300 ppm Activator 90@ Spreader Lo-Foam Formula non-ionic surfactant containing alkylarylpolyoxyethylene, free fatty acids, glycols and 2-propanol (Loveland Industries, Inc.) to provide the desired concentration in ppm. Formulated test solutions were then applied in 1 mL volumes through a SUJ2 atomizer nozzle with ⅛ JJ custom body (Spraying Systems Co.) positioned 1.27 cm (0.5 inches) above the top of each test unit.
The results for all experimental compositions in this test were replicated three times. After spraying of the formulated test composition, each test unit was allowed to dry for 1 hour and the cap removed. The test units were held for 13 days in a growth chamber at 28° C. and 50-70% relative humidity.

[2] = test system: Western Flower Thrips (Frankliniella occidentalis Pergande); experiment: Test B: Western Flower Thrips control on bean plants, plant damage rating converted to % plant protection after 7 days; settings: for Plant Damage (obs): Table 3a, applied alone
Description: as §1
Thus, a plant given a plant damage rating of 3 out of 10 is equivalent to 70% plant protection In all of these tests, compounds of Formula I are Compounds 1 (Cpd 1), 2 (Cpd2), and 3 (Cpd3) and compounds of Formula II are compounds 4 (Cpd4) and 5 (Cpd 5).
For evaluating control of the Western Flower Thrips (Frankliniella occidentalis Pergande) through contact and/or systemic means, each test unit consisted of a small open container with a 5- to 7-day-old bean (var. Soleil) plant inside.
Test solutions were formulated and sprayed with 3 replications as described for Test A. After spraying, the test units were allowed to dry for 1 hour, 22 to 27 adult thrips were added to each unit and then a black, screened cap was placed on top. The test units were held for 7 days at 25° C. and 45-55% relative humidity. To evaluate the level of plant protection provided by each treatment, each test unit was then visually assessed for plant damage inflicted by insect feeding and rated 0-10, where 0=undamaged and 10=plant is dead; the results are listed in Tables 3a-g.

[3] = test system: Potato Leafhopper (Empoasca fabae Harris); experiment: Test C: Potato Leafhopper control on bean plants, insect mortality after 6 days; settings: read-out: % Mortality (obs)
Description: as §1
For evaluating control of Potato Leafhopper (Empoasca fabae Harris) through contact and/or systemic means, each test unit consisted of a small open container with a 5- to 6-day-old Longio bean plant (primary leaves emerged) inside. White sand was added to the top of the soil, and one of the primary leaves was excised prior to application. Test compounds were formulated and sprayed with 3 replications as described for Test A. After spraying, the test units were allowed to dry for 1 hour before they were infested with 5 potato leafhoppers (18- to 21-day-old adults). A black, screened cap was placed on the top of each container. The test units were held for 6 days in a growth chamber at 19-21° C. and 50-70% relative humidity.

[4] = test system: cotton melon aphid (Aphis gossypii Glover); experiment: Test D: cotton melon aphid control on okra plants, insect mortality after 6 days; settings: Aphis gossypii, read-out: % Mortality (obs)
Description: The analysis of enhanced activity between the mixtures or compositions was determined using Colby's equation. The average % mortality data for the test compounds alone were inserted into the Colby's equation. If the observed (obs) average % mortality was higher than “p”, the expected (exp) % mortality, the mixture or composition had enhanced effects. If the observed average % mortality was equal to or lower than the expected mortality, the mixture or composition either had no enhanced effect. For bioassays where insect feeding damage was evaluated, enhanced activity is identified when the observed plant damage is less than the expected plant damage rating; ratings ranged between 0 (no damage) and 10 (dead plant) and each value was converted to a % plant protection. 100−(Obs Plant Damage*10)
For evaluating control of cotton melon aphid (Aphis gossypii Glover) through contact and/or systemic means, each test unit consisted of a small open container with a 6- to 7-day-old okra plant inside. This was pre-infested by placing on a leaf of the test plant 30 to 40 aphids on a piece of leaf excised from a culture plant (cut-leaf method). The […] moved onto the test plant as the leaf piece desiccated. After pre-infestation, the soil of the test unit was covered with a layer of sand.
Test compounds were formulated and sprayed as described for Test A. The applications were replicated three times. After spraying of the formulated test compounds, each test unit was allowed to dry for 1 hour and then a black, screened cap was placed on top. […]

[5] = test system: diamondback moth (Plutella xylostella L.); experiment: Test E: diamondback moth control on mustard plants, contact and/or systemic, plant damage rating after 6 days
Description: as §1
For evaluating control of diamondback moth (Plutella xylostella L.) through contact and/or systemic means, each test unit consisted of a small open container with a 10- to 12-day-old mustard plant inside. Test compounds were formulated and sprayed with 3 replications as described for Test A. After spraying, the test units were allowed to dry for 1 hour before they were infested with 30-50 neonate larvae. A black, screened cap was placed on the top of each container. The test units were held for 6 days in a growth chamber at 24-25° C. and 70% relative humidity. Each test unit was then visually assessed for plant damage and rated 0-10, where 0=undamaged and 10=plant is dead; the results are listed in Tables 6a-b.

For CNC(=O)c1cc(C#N)cc(C)c1NC(=O)c1cc(Br)nn1-c1ncccc1Cl [Cyantraniliprole, 3-bromo-1-(3-chloro-2-pyridinyl)-N-[4-cyano-2-methyl-6-[(methylamino)carbonyl]phenyl]-1H-pyrazole-5-carboxamide, reference compound], the mortality at 3 ppm [1] was 29.1%, the mortality at 5.5 ppm [1] was 61.1% and the “Plant Damage (obs)” value ([2]; 0.08 ppm) was 6.7%. The “Plant Damage (obs)” value ([2]; 0.28 ppm) was 43.3%, the mortality at 1.75 ppm [3] was 13.3% and the mortality at 3.3 ppm [3] was 28.6%. The mortality at 0.06 ppm [4] was 21.1%, the mortality at 0.12 ppm [4] was 45.1% and the “Plant Protection (obs)” value ([5]; Table 6a, 0.013 ppm) was 73.3. For the same compound, the “Plant Protection (obs)” value ([5]; Table 6a, 0.02 ppm) was 20.0.
Compound CCOC(=O)OC1=C(c2cc(C)ccc2C)C(=O)N[C@]12CC[C@@H](OC)CC2 [Spirotetramat, spirotetramat, reference compound] has a mortality at 50 ppm [1] of 2.1%, a mortality at 250 ppm [1] of 34.4% and a pest or weed control at 100 ppm ([2]; Frankliniella occidentalis, 168 h, Table 3d, 100 ppm, read-out: Plant Protection (obs)) of 53.3%. For the same compound, the pest or weed control at 250 ppm ([2]; Frankliniella occidentalis, 168 h, Table 3d, 250 ppm, read-out: Plant Protection (obs)) was 73.3%, the mortality at 50 ppm [3] was 28.6% and the mortality at 250 ppm [3] was 73.3%. The mortality at 0.25 ppm ([4]; 120 h) was 21.1%, the mortality at 0.85 ppm ([4]; 120 h) was 45.1% and the “Plant Protection (obs)” value ([5]; Table 6b, 83.2 ppm) was 73.3. The “Plant Protection (obs)” value ([5]; Table 6b, 150 ppm) was 80.0.

Source: patent US12419307B2, “Mixtures comprising indazole pesticides” (FMC Corporation, priority 2019, dated 2025)
